Test results from the supplement of paper PMC10733146.

What was measured:
Assay in all cases: viability relative to DMSO control (fraction); higher = less drug effect (more viable cells)
Conditions in all cases: 48 h
[1] = test system: primary AML patient cells (S055)
How it was run: (§1)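 Viability was quantified by CellTiter-Glo luminescence and related to the median of 16 inner DMSO wells. Before that, primary mononuclear tumour cells, fresh or cryopreserved and Ficoll-isolated from blood or bone marrow or prepared from processed lymph node, were plated at 4 × 10^4 cells per well in 384-well plates containing pre-plated compounds at five concentrations, one well each. Plates were incubated in RPMI-1640 with penicillin/streptomycin, L-glutamine and human serum at 37 °C and 5% CO2 for 48 h.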

[2] = test system: primary AML patient cells (S019)
How it was run: as §1

[3] = test system: primary AML patient cells (S002)
How it was run: as §1

[4] = test system: primary AML patient cells (S060)
How it was run: as §1

[5] = test system: primary FL patient cells (S022)
How it was run: as §1

[6] = test system: primary AML patient cells (S025)
How it was run: as §1

[7] = test system: primary AML patient cells (S021)
How it was run: as §1

[8] = test system: primary ALL patient cells (S048)
How it was run: as §1

[9] = test system: primary AML patient cells (S017)
How it was run: as §1

[10] = test system: primary AML patient cells (S071)
How it was run: as §1

[11] = test system: primary AML patient cells (S079)
How it was run: as §1

[12] = test system: primary AML patient cells (S091)
How it was run: as §1

[13] = test system: primary FL patient cells (S087)
How it was run: as §1

[14] = test system: primary AML patient cells (S072)
How it was run: as §1

[15] = test system: primary B-PLL patient cells (S016)
How it was run: as §1

[16] = test system: primary AML patient cells (S009)
How it was run: as §1

[17] = test system: primary DLBCL patient cells (S082)
How it was run: as §1

[18] = test system: primary ALL patient cells (S088)
How it was run: as §1

[19] = test system: primary MCL patient cells (S053)
How it was run: as §1

[20] = test system: primary AML patient cells (S089)
How it was run: as §1

O=C1c2c(O)ccc(O)c2C(=O)c2c(NCCNCCO)ccc(NCCNCCO)c21 [Mitoxantrone]
viability ([1]; 0.008 µM): 0.978 | viability ([1]; 0.04 µM): 0.869 | viability ([1]; 0.2 µM): 0.821 | viability ([1]; 1 µM): 0.729 | viability ([1]; 5 µM): 0.234 | viability ([2]; 0.008 µM): 0.647 | viability ([2]; 0.04 µM): 0.256 | viability ([2]; 0.2 µM): 0.282 | viability ([2]; 1 µM): 0.132 | viability ([2]; 5 µM): 0.0646 | viability ([3]; 0.008 µM): 0.744 | viability ([3]; 0.04 µM): 0.443 | viability ([3]; 0.2 µM): 0.332 | viability ([3]; 1 µM): 0.334 | viability ([3]; 5 µM): 0.22 | viability ([4]; 0.008 µM): 0.974 | viability ([4]; 0.04 µM): 0.963 | viability ([4]; 0.2 µM): 1.07 | viability ([4]; 1 µM): 0.332 | viability ([4]; 5 µM): 0.016 | viability ([5]; 0.008 µM): 0.953 | viability ([5]; 0.04 µM): 0.844 | viability ([5]; 0.2 µM): 0.804 | viability ([5]; 1 µM): 0.437 | viability ([5]; 5 µM): 0.229 | viability ([6]; 0.008 µM): 0.539 | viability ([6]; 0.04 µM): 0.399 | viability ([6]; 0.2 µM): 0.533 | viability ([6]; 1 µM): 0.0658 | viability ([6]; 5 µM): 0.0287 | viability ([7]; 0.008 µM): 0.66 | viability ([7]; 0.04 µM): 0.327 | viability ([7]; 0.2 µM): 0.265 | viability ([7]; 1 µM): 0.212 | viability ([7]; 5 µM): 0.106 | viability ([8]; 0.008 µM): 0.449 | viability ([8]; 0.04 µM): 0.0767 | viability ([8]; 0.2 µM): 0.113 | viability ([8]; 1 µM): 0.0232 | viability ([8]; 5 µM): 0.0139 | viability ([9]; 0.008 µM): 0.952 | viability ([9]; 0.04 µM): 0.811 | viability ([9]; 0.2 µM): 0.608 | viability ([9]; 1 µM): 0.126 | viability ([9]; 5 µM): 0.0293 | viability ([10]; 0.008 µM): 0.139 | viability ([10]; 0.04 µM): 0.125 | viability ([10]; 0.2 µM): 0.124 | viability ([10]; 1 µM): 0.102 | viability ([10]; 5 µM): 0.0662 | viability ([11]; 0.008 µM): 0.801 | viability ([11]; 0.04 µM): 0.655 | viability ([11]; 0.2 µM): 0.526 | viability ([11]; 1 µM): 0.133 | viability ([11]; 5 µM): 0.0172 | viability ([12]; 0.008 µM): 0.494 | viability ([12]; 0.04 µM): 0.563 | viability ([12]; 0.2 µM): 0.46 | viability ([12]; 1 µM): 0.118 | viability ([12]; 5 µM): 0.0676 | viability ([13]; 0.008 µM): 0.868 | viability ([13]; 0.04 µM): 0.763 | viability ([13]; 0.2 µM): 0.717 | viability ([13]; 1 µM): 0.548 | viability ([13]; 5 µM): 0.177 | viability ([14]; 0.008 µM): 0.839 | viability ([14]; 0.04 µM): 0.715 | viability ([14]; 0.2 µM): 0.661 | viability ([14]; 1 µM): 0.152 | viability ([14]; 5 µM): 0.0445 | viability ([15]; 0.008 µM): 0.278 | viability ([15]; 0.04 µM): 0.0753 | viability ([15]; 0.2 µM): 0.0754 | viability ([15]; 1 µM): 0.0236 | viability ([15]; 5 µM): 0.014 | viability ([16]; 0.008 µM): 0.788 | viability ([16]; 0.04 µM): 0.651 | viability ([16]; 0.2 µM): 0.517 | viability ([16]; 1 µM): 0.156 | viability ([16]; 5 µM): 0.0504 | viability ([17]; 0.008 µM): 0.886 | viability ([17]; 0.04 µM): 0.691 | viability ([17]; 0.2 µM): 0.541 | viability ([17]; 1 µM): 0.538 | viability ([17]; 5 µM): 0.0152 | viability ([18]; 0.008 µM): 0.535 | viability ([18]; 0.04 µM): 0.271 | viability ([18]; 0.2 µM): 0.216 | viability ([18]; 1 µM): 0.0605 | viability ([18]; 5 µM): 0.0218 | viability ([19]; 0.008 µM): 0.452 | viability ([19]; 0.04 µM): 0.326 | viability ([19]; 0.2 µM): 0.363 | viability ([19]; 1 µM): 0.236 | viability ([19]; 5 µM): 0.169 | viability ([20]; 0.008 µM): 0.339 | viability ([20]; 0.04 µM): 0.966 | viability ([20]; 0.2 µM): 0.0966 | viability ([20]; 1 µM): 0.0273 | viability ([20]; 5 µM): 0.0313
